Assay results from PubChem BioAssay AID624376 (Broad Institute, 2012).
Records with an inconclusive call do not appear. Calls of active or inactive are those of the source. How the calls were made is not given here.

Assay: LMP1-driven NF-kB reporter inhibition, dose response, cell-based, luciferase reporter, luminescence, dry powder, set 2 (AID 624376)
Conditions: LMP1-induced NF-kappaB luciferase reporter cells, luminescence

Row | Compound | activity change, negative = inhibition (at 35 µM (top of the series)) | also measured
1 | O=C(Cc1ccccn1)NCC[C@H]1CC[C@@H](NC(=O)Nc2ccc(Cl)cc2)[C@@H](CO)O1 | 0.728% (inactive) | 
2 | C[C@H]1CN([C@@H](C)CO)C(=O)Cc2cc(NC(=O)Cc3ccccc3)ccc2O[C@@H]1CN(C)Cc1ccc(C(F)(F)F)cc1 | -3.24% (inactive) | 
3 | CN(C)c1ccc2c(c1)[C@@H]1C[C@@H](CC(=O)NCc3ccc(Oc4ccccc4)cc3)O[C@@H](CO)[C@@H]1O2 | -26.2% (inactive) | 
4 | Cc1noc(C)c1S(=O)(=O)Nc1ccc2c(c1)C(=O)N([C@@H](C)CO)C[C@@H](C)[C@@H](CN(C)Cc1ccc(C(F)(F)F)cc1)OCCCC[C@@H](C)O2 | -7.77% (inactive) | 
5 | CO[C@H]1CN(C)C(=O)c2ccc(NC(=O)C3CC3)cc2OC[C@H](C)N(C(=O)c2ccccn2)C[C@H]1C | -14.8% (inactive) | 
6 | C[C@H](NC(=O)C[C@H]1C=C[C@H](NC(=O)Cc2ccccn2)[C@H](CO)O1)c1ccccc1 | 3.9% (inactive) | 
7 | C[C@@H](NC(=O)C[C@H]1C=C[C@H](NC(=O)Cc2ccccn2)[C@H](CO)O1)c1ccccc1 | -2.05% (inactive) | 
8 | C[C@@H]1CN([C@@H](C)CO)C(=O)c2c(c3ccccc3n2C)-c2ccccc2CO[C@H]1CN(C)C(=O)Nc1ccc(F)cc1 | -7.17% (inactive) | 
9 | Cc1noc(C)c1S(=O)(=O)Nc1ccc2c(c1)C(=O)N([C@H](C)CO)C[C@@H](C)[C@@H](CN(C)Cc1ccc(C(F)(F)F)cc1)OCCCC[C@@H](C)O2 | -6.08% (inactive) | 
10 | C[C@@H](NC(=O)C[C@H]1C=C[C@@H](NC(=O)Cc2ccccn2)[C@@H](CO)O1)c1ccccc1 | -14% (inactive) | 
11 | CO[C@@H]1CN(C)C(=O)c2ccc(NC(C)=O)cc2OC[C@@H](C)N(Cc2ccccc2F)C[C@H]1C | 0.725% (inactive) | 
12 | O=C(C[C@@H]1C[C@H]2c3cc(NS(=O)(=O)c4ccc(F)cc4)ccc3O[C@H]2[C@@H](CO)O1)NC1CCCCC1 | 2.38% (inactive) | 
13 | O=C(Cc1ccccn1)NCC[C@@H]1CC[C@@H](NC(=O)Nc2ccc(Cl)cc2)[C@H](CO)O1 | 0.177% (inactive) | 
14 | O=C(Cc1ccccn1)NCC[C@@H]1CC[C@@H](NC(=O)Nc2ccc(Cl)cc2)[C@@H](CO)O1 | -0.581% (inactive) | 
15 | C[C@H](NC(=O)C[C@@H]1C=C[C@@H](NC(=O)Cc2ccccn2)[C@H](CO)O1)c1ccccc1 | 4.21% (inactive) | 
16 | O=C(Cc1ccccn1)NCC[C@@H]1CC[C@H](NC(=O)Nc2ccc(Cl)cc2)[C@H](CO)O1 | -9.97% (inactive) | 
17 | COc1cccc(S(=O)(=O)N(C)C[C@H]2Oc3cc(C4=CCCCC4)ccc3S(=O)(=O)N([C@H](C)CO)C[C@H]2C)c1 | -4.73% (inactive) | 
18 | COC(=O)C[C@H]1C[C@H]2c3cc(NC(=O)CN(C)C)ccc3O[C@H]2[C@H](CO)O1 | -9.49% (inactive) | 
19 | COc1ccccc1C(=O)Nc1ccc2c(c1)C(=O)N(C)[C@@H]1CC[C@H](CC(=O)NCCc3ccncc3)O[C@H]1CO2 | -9.84% (inactive) | 
20 | Cc1noc(C)c1S(=O)(=O)Nc1ccc2c(c1)C(=O)N([C@H](C)CO)C[C@H](C)[C@@H](CN(C)Cc1ccc(C(F)(F)F)cc1)OCCCC[C@@H](C)O2 | -11.7% (inactive) | 

Row | Compound | activity change, negative = inhibition (at 35 µM (top of the series)) | also measured
21 | C[C@H]1CN([C@@H](C)CO)C(=O)Cc2cc(NC(=O)Cc3ccccc3)ccc2O[C@H]1CN(C)Cc1ccc(C(F)(F)F)cc1 | 18.5% (inactive) | 
22 | Cc1noc(C)c1S(=O)(=O)Nc1ccc2c(c1)C(=O)N([C@H](C)CO)C[C@H](C)[C@@H](CN(C)Cc1ccc(C(F)(F)F)cc1)OCCCC[C@H](C)O2 | 27.4% (inactive) | 
23 | Cc1noc(C)c1S(=O)(=O)Nc1ccc2c(c1)C(=O)N([C@H](C)CO)C[C@@H](C)[C@H](CN(C)Cc1ccc(C(F)(F)F)cc1)OCCCC[C@@H](C)O2 | -6% (inactive) | 
24 | Cc1noc(C)c1S(=O)(=O)Nc1ccc2c(c1)C(=O)N([C@H](C)CO)C[C@H](C)[C@H](CN(C)Cc1ccc(C(F)(F)F)cc1)OCCCC[C@@H](C)O2 | 16.1% (inactive) | 
25 | C[C@@H]1CN([C@@H](C)CO)C(=O)Cc2cc(NC(=O)Cc3ccccc3)ccc2O[C@@H]1CN(C)Cc1ccc(C(F)(F)F)cc1 | 5.83% (inactive) | 
26 | C[C@@H](NC(=O)C[C@@H]1C=C[C@@H](NC(=O)Cc2ccccn2)[C@@H](CO)O1)c1ccccc1 | -0.171% (inactive) | 
27 | C[C@H](NC(=O)C[C@H]1C=C[C@@H](NC(=O)Cc2ccccn2)[C@@H](CO)O1)c1ccccc1 | -0.671% (inactive) | 
28 | C[C@@H]1CN([C@H](C)CO)C(=O)c2c(c3ccccc3n2C)-c2ccccc2CO[C@H]1CN(C)C(=O)Nc1ccc(F)cc1 | -0.608% (inactive) | 
29 | C[C@H](NC(=O)C[C@H]1C=C[C@@H](NC(=O)Cc2ccccn2)[C@H](CO)O1)c1ccccc1 | 0.463% (inactive) | 
30 | COC(=O)C[C@@H]1C[C@@H]2c3cc(NC(=O)CN(C)C)ccc3O[C@@H]2[C@@H](CO)O1 | -4.49% (inactive) | 
31 | C[C@H](CO)N1C[C@H](C)[C@H](CN(C)Cc2ccc(C(F)(F)F)cc2)Oc2ccc(NC(=O)Cc3ccccc3)cc2CC1=O | 3.81% (inactive) | 
32 | COc1ccccc1CNC(=O)C[C@H]1C[C@@H]2c3cc(NC(=O)CN(C)C)ccc3O[C@@H]2[C@@H](CO)O1 | -6.3% (inactive) | 
33 | CS(=O)(=O)Nc1ccc2c(c1)[C@@H]1C[C@H](CC(=O)NCC3CC3)O[C@H](CO)[C@@H]1O2 | -9.8% (inactive) | 
34 | Cc1noc(C)c1S(=O)(=O)Nc1ccc2c(c1)C(=O)N([C@H](C)CO)C[C@@H](C)[C@@H](CN(C)Cc1ccc(C(F)(F)F)cc1)OCCCC[C@H](C)O2 | 16.2% (inactive) | 
35 | C[C@@H](NC(=O)C[C@H]1C[C@@H]2c3cc(NC(=O)c4cccnc4)ccc3O[C@@H]2[C@@H](CO)O1)c1ccccc1 | 6.76% (inactive) | 
36 | C[C@@H]1CN([C@H](C)CO)C(=O)c2c(c3ccccc3n2C)-c2ccccc2CO[C@@H]1CN(C)C(=O)Nc1ccc(F)cc1 | 3.49% (inactive) | 
37 | O=C(C[C@H]1C[C@@H]2c3cc(NS(=O)(=O)c4ccc(F)cc4)ccc3O[C@@H]2[C@H](CO)O1)NC1CCCCC1 | -0.993% (inactive) | 
38 | COc1cccc(S(=O)(=O)N(C)C[C@@H]2Oc3cc(C4=CCCCC4)ccc3S(=O)(=O)N([C@@H](C)CO)C[C@H]2C)c1 | 4.81% (inactive) | 
39 | C[C@@H](NC(=O)C[C@@H]1C=C[C@@H](NC(=O)Cc2ccccn2)[C@H](CO)O1)c1ccccc1 | -0.374% (inactive) | 
40 | Cc1noc(C)c1S(=O)(=O)Nc1ccc2c(c1)C(=O)N([C@H](C)CO)C[C@H](C)[C@H](CN(C)Cc1ccc(C(F)(F)F)cc1)OCCCC[C@H](C)O2 |  | activity change, negative = inhibition (at 16 µM (top of the series)): -0.443% (inactive)

Row | Compound | activity change, negative = inhibition (at 35 µM (top of the series)) | also measured
41 | Cc1noc(C)c1S(=O)(=O)Nc1ccc2c(c1)C(=O)N([C@@H](C)CO)C[C@H](C)[C@@H](CN(C)Cc1ccc(C(F)(F)F)cc1)OCCCC[C@H](C)O2 | -1.9% (inactive) | 
42 | O=C(Cc1ccccn1)NCC[C@H]1CC[C@H](NC(=O)Nc2ccc(Cl)cc2)[C@@H](CO)O1 | 4.16% (inactive) | 
43 | Cc1noc(C)c1S(=O)(=O)Nc1ccc2c(c1)C(=O)N([C@@H](C)CO)C[C@H](C)[C@H](CN(C)Cc1ccc(C(F)(F)F)cc1)OCCCC[C@H](C)O2 | -10.2% (inactive) | 
44 | C[C@H](CO)N1C[C@H](C)[C@@H](CN(C)Cc2ccc(C(F)(F)F)cc2)Oc2ccc(NC(=O)Cc3ccccc3)cc2CC1=O | 17.6% (inactive) | 
45 | C[C@H](NC(=O)C[C@@H]1C=C[C@@H](NC(=O)Cc2ccccn2)[C@@H](CO)O1)c1ccccc1 | 2.64% (inactive) | 
46 | O=C(C[C@@H]1C[C@@H]2c3cc(NC(=O)c4cccnc4)ccc3O[C@@H]2[C@H](CO)O1)NCC(F)(F)F | -8.21% (inactive) | 
47 | C[C@@H](NC(=O)C[C@H]1C=C[C@H](NC(=O)Cc2ccccn2)[C@@H](CO)O1)c1ccccc1 | 2.05% (inactive) | 
48 | O=C(Cc1ccccn1)NCC[C@H]1CC[C@@H](NC(=O)Nc2ccc(Cl)cc2)[C@H](CO)O1 | -2.95% (inactive) | 
49 | C[C@@H](NC(=O)C[C@@H]1C=C[C@H](NC(=O)Cc2ccccn2)[C@@H](CO)O1)c1ccccc1 | -7.31% (inactive) | 
50 | Cc1noc(C)c1S(=O)(=O)Nc1ccc2c(c1)C(=O)N([C@H](C)CO)C[C@@H](C)[C@H](CN(C)Cc1ccc(C(F)(F)F)cc1)OCCCC[C@H](C)O2 | -0.786% (inactive) | 
51 | C[C@@H]1CN([C@H](C)CO)C(=O)Cc2cc(NC(=O)Cc3ccccc3)ccc2O[C@H]1CN(C)Cc1ccc(C(F)(F)F)cc1 | -5.26% (inactive) | 
52 | C[C@@H](NC(=O)C[C@@H]1C=C[C@H](NC(=O)Cc2ccccn2)[C@H](CO)O1)c1ccccc1 | 1.6% (inactive) | 
53 | CC(C)(C)[S@@](=O)N1Cc2cc(C(=O)NCCc3ccncc3)nc(-c3cccc(-c4cccnc4)c3)c2[C@H]1CCO | -10.1% (inactive) | 
54 | CS(=O)(=O)Nc1ccc2c(c1)[C@H]1C[C@@H](CC(=O)NCC3CC3)O[C@@H](CO)[C@H]1O2 | 5.22% (inactive) | 
55 | C[C@H](NC(=O)C[C@H]1C=C[C@H](NC(=O)Cc2ccccn2)[C@@H](CO)O1)c1ccccc1 | 10.7% (inactive) | 
56 | Cc1noc(C)c1S(=O)(=O)Nc1ccc2c(c1)C(=O)N([C@@H](C)CO)C[C@@H](C)[C@@H](CN(C)Cc1ccc(C(F)(F)F)cc1)OCCCC[C@H](C)O2 | 13% (inactive) | 
57 | Cc1noc(C)c1S(=O)(=O)Nc1ccc2c(c1)C(=O)N([C@@H](C)CO)C[C@H](C)[C@H](CN(C)Cc1ccc(C(F)(F)F)cc1)OCCCC[C@@H](C)O2 |  | activity change, negative = inhibition (at 30 µM (top of the series)): 2.6% (inactive)
58 | C[C@H](NC(=O)C[C@@H]1C=C[C@H](NC(=O)Cc2ccccn2)[C@@H](CO)O1)c1ccccc1 | 5.95% (inactive) | 
